# Laboratory results reported in the NIST ThermoML archive (doi:10.1016/j.tca.2016.06.022).
# ± gives the expanded uncertainty stated by the source.
# Test: xn = mol fraction of the nth substance listed
# Details: 101 kPa, Liquid, Vibrating tube method
structure (smiles),measurement,setting,value
"NCCN [ethane-1,2-diamine] + O",mass density,"288.15 K, x1 = 0.6361",945.77 ± 0.51 kg/m3
same,mass density,"288.15 K, x1 = 0.6843",938.88 ± 0.51 kg/m3
same,mass density,"288.15 K, x1 = 0.7386",931.34 ± 0.51 kg/m3
same,mass density,"288.15 K, x1 = 0.7954",924.08 ± 0.51 kg/m3
same,mass density,"288.15 K, x1 = 0.81",922.08 ± 0.51 kg/m3
same,mass density,"288.15 K, x1 = 0.8505",917.35 ± 0.51 kg/m3
same,mass density,"288.15 K, x1 = 0.898",912.03 ± 0.51 kg/m3
same,mass density,"288.15 K, x1 = 0.9282",908.76 ± 0.51 kg/m3
same,mass density,"288.15 K, x1 = 0.9584",905.56 ± 0.51 kg/m3
same,mass density,"288.15 K, x1 = 0.9678",904.59 ± 0.51 kg/m3
same,mass density,"288.15 K, x1 = 0.9793",903.4 ± 0.51 kg/m3
same,mass density,"288.15 K, x1 = 1",901.26 ± 0.51 kg/m3
same,mass density,"298.15 K, x1 = 0.002",996.85 ± 0.5 kg/m3
same,mass density,"298.15 K, x1 = 0.0033",996.68 ± 0.5 kg/m3
same,mass density,"298.15 K, x1 = 0.0047",996.5 ± 0.5 kg/m3
same,mass density,"298.15 K, x1 = 0.0072",996.2 ± 0.5 kg/m3
same,mass density,"298.15 K, x1 = 0.009",995.97 ± 0.5 kg/m3
same,mass density,"298.15 K, x1 = 0.0123",995.55 ± 0.5 kg/m3
same,mass density,"298.15 K, x1 = 0.0222",994.61 ± 0.5 kg/m3
same,mass density,"298.15 K, x1 = 0.0436",993.31 ± 0.5 kg/m3
same,mass density,"298.15 K, x1 = 0.0609",992.96 ± 0.5 kg/m3
same,mass density,"298.15 K, x1 = 0.0827",993.06 ± 0.5 kg/m3
same,mass density,"298.15 K, x1 = 0.106",993.56 ± 0.5 kg/m3
same,mass density,"298.15 K, x1 = 0.1481",994.9 ± 0.5 kg/m3
same,mass density,"298.15 K, x1 = 0.2063",995.33 ± 0.5 kg/m3
same,mass density,"298.15 K, x1 = 0.2513",993.49 ± 0.5 kg/m3
same,mass density,"298.15 K, x1 = 0.3148",985.82 ± 0.5 kg/m3
same,mass density,"298.15 K, x1 = 0.3258",985.17 ± 0.5 kg/m3
same,mass density,"298.15 K, x1 = 0.341",984.26 ± 0.51 kg/m3
same,mass density,"298.15 K, x1 = 0.4038",974.96 ± 0.51 kg/m3
same,mass density,"298.15 K, x1 = 0.4489",967.22 ± 0.51 kg/m3
same,mass density,"298.15 K, x1 = 0.4928",959.94 ± 0.51 kg/m3
same,mass density,"298.15 K, x1 = 0.5468",950.96 ± 0.51 kg/m3
same,mass density,"298.15 K, x1 = 0.5907",943.88 ± 0.51 kg/m3
same,mass density,"298.15 K, x1 = 0.6361",936.87 ± 0.51 kg/m3
same,mass density,"298.15 K, x1 = 0.6843",929.8 ± 0.51 kg/m3
same,mass density,"298.15 K, x1 = 0.7386",922.53 ± 0.51 kg/m3
same,mass density,"298.15 K, x1 = 0.7954",914.93 ± 0.51 kg/m3
same,mass density,"298.15 K, x1 = 0.81",912.91 ± 0.51 kg/m3
same,mass density,"298.15 K, x1 = 0.8505",908.14 ± 0.51 kg/m3
same,mass density,"298.15 K, x1 = 0.898",902.85 ± 0.51 kg/m3
same,mass density,"298.15 K, x1 = 0.9282",899.58 ± 0.51 kg/m3
same,mass density,"298.15 K, x1 = 0.9584",896.29 ± 0.51 kg/m3
same,mass density,"298.15 K, x1 = 0.9678",895.3 ± 0.51 kg/m3
same,mass density,"298.15 K, x1 = 0.9793",894.08 ± 0.51 kg/m3
same,mass density,"298.15 K, x1 = 1",891.9 ± 0.51 kg/m3
same,mass density,"308.15 K, x1 = 0.002",993.82 ± 0.5 kg/m3
same,mass density,"308.15 K, x1 = 0.0033",993.64 ± 0.5 kg/m3
same,mass density,"308.15 K, x1 = 0.0047",993.43 ± 0.5 kg/m3
same,mass density,"308.15 K, x1 = 0.0072",993.09 ± 0.5 kg/m3
same,mass density,"308.15 K, x1 = 0.009",992.86 ± 0.5 kg/m3
same,mass density,"308.15 K, x1 = 0.0123",992.39 ± 0.5 kg/m3
same,mass density,"308.15 K, x1 = 0.0222",991.25 ± 0.5 kg/m3
same,mass density,"308.15 K, x1 = 0.0436",989.53 ± 0.5 kg/m3
same,mass density,"308.15 K, x1 = 0.0609",988.77 ± 0.5 kg/m3
same,mass density,"308.15 K, x1 = 0.0827",988.38 ± 0.5 kg/m3
same,mass density,"308.15 K, x1 = 0.106",988.34 ± 0.5 kg/m3
same,mass density,"308.15 K, x1 = 0.1481",988.68 ± 0.5 kg/m3
same,mass density,"308.15 K, x1 = 0.2063",987.95 ± 0.5 kg/m3
same,mass density,"308.15 K, x1 = 0.2513",985.55 ± 0.5 kg/m3
same,mass density,"308.15 K, x1 = 0.3148",978.7 ± 0.51 kg/m3
same,mass density,"308.15 K, x1 = 0.341",975.15 ± 0.51 kg/m3
same,mass density,"308.15 K, x1 = 0.4038",965.9 ± 0.51 kg/m3
same,mass density,"308.15 K, x1 = 0.4489",958.22 ± 0.51 kg/m3
same,mass density,"308.15 K, x1 = 0.4928",950.76 ± 0.51 kg/m3
same,mass density,"308.15 K, x1 = 0.5468",942.44 ± 0.51 kg/m3
same,mass density,"308.15 K, x1 = 0.5907",934.72 ± 0.51 kg/m3
same,mass density,"308.15 K, x1 = 0.6361",927.73 ± 0.51 kg/m3
same,mass density,"308.15 K, x1 = 0.6843",920.72 ± 0.51 kg/m3
same,mass density,"308.15 K, x1 = 0.7386",913.33 ± 0.51 kg/m3
same,mass density,"308.15 K, x1 = 0.7954",905.7 ± 0.51 kg/m3
same,mass density,"308.15 K, x1 = 0.81",903.69 ± 0.51 kg/m3
same,mass density,"308.15 K, x1 = 0.8505",898.88 ± 0.51 kg/m3
same,mass density,"308.15 K, x1 = 0.898",893.62 ± 0.51 kg/m3
same,mass density,"308.15 K, x1 = 0.9282",890.26 ± 0.51 kg/m3
same,mass density,"308.15 K, x1 = 0.9584",886.94 ± 0.51 kg/m3
same,mass density,"308.15 K, x1 = 0.9678",885.94 ± 0.51 kg/m3
same,mass density,"308.15 K, x1 = 0.9793",884.7 ± 0.51 kg/m3
same,mass density,"308.15 K, x1 = 1",882.49 ± 0.51 kg/m3
same,mass density,"323.15 K, x1 = 0.002",987.81 ± 0.5 kg/m3
same,mass density,"323.15 K, x1 = 0.0033",987.61 ± 0.5 kg/m3
same,mass density,"323.15 K, x1 = 0.0047",987.39 ± 0.5 kg/m3
same,mass density,"323.15 K, x1 = 0.0072",987 ± 0.5 kg/m3
same,mass density,"323.15 K, x1 = 0.009",986.75 ± 0.5 kg/m3
same,mass density,"323.15 K, x1 = 0.0123",986.24 ± 0.5 kg/m3
same,mass density,"323.15 K, x1 = 0.0222",984.89 ± 0.5 kg/m3
same,mass density,"323.15 K, x1 = 0.0436",982.66 ± 0.5 kg/m3
same,mass density,"323.15 K, x1 = 0.0609",981.44 ± 0.5 kg/m3
same,mass density,"323.15 K, x1 = 0.0827",980.39 ± 0.5 kg/m3
same,mass density,"323.15 K, x1 = 0.106",979.64 ± 0.5 kg/m3
same,mass density,"323.15 K, x1 = 0.1481",978.7 ± 0.5 kg/m3
same,mass density,"323.15 K, x1 = 0.2063",976.41 ± 0.5 kg/m3
same,mass density,"323.15 K, x1 = 0.2513",973.14 ± 0.51 kg/m3
same,mass density,"323.15 K, x1 = 0.3148",964.84 ± 0.51 kg/m3
same,mass density,"323.15 K, x1 = 0.341",961.96 ± 0.51 kg/m3
same,mass density,"323.15 K, x1 = 0.4038",952.12 ± 0.51 kg/m3
same,mass density,"323.15 K, x1 = 0.4489",944.49 ± 0.51 kg/m3
same,mass density,"323.15 K, x1 = 0.4928",936.96 ± 0.51 kg/m3
same,mass density,"323.15 K, x1 = 0.5468",928.02 ± 0.51 kg/m3
same,mass density,"323.15 K, x1 = 0.5907",920.79 ± 0.51 kg/m3
same,mass density,"323.15 K, x1 = 0.6361",913.79 ± 0.51 kg/m3
same,mass density,"323.15 K, x1 = 0.6843",906.8 ± 0.51 kg/m3
same,mass density,"323.15 K, x1 = 0.7386",899.31 ± 0.51 kg/m3
same,mass density,"323.15 K, x1 = 0.7954",891.79 ± 0.51 kg/m3
same,mass density,"323.15 K, x1 = 0.81",889.66 ± 0.51 kg/m3
same,mass density,"323.15 K, x1 = 0.8505",884.84 ± 0.51 kg/m3
same,mass density,"323.15 K, x1 = 0.898",879.53 ± 0.51 kg/m3
same,mass density,"323.15 K, x1 = 0.9282",876.1 ± 0.51 kg/m3
same,mass density,"323.15 K, x1 = 0.9584",872.76 ± 0.51 kg/m3
same,mass density,"323.15 K, x1 = 0.9678",871.75 ± 0.51 kg/m3
same,mass density,"323.15 K, x1 = 0.9793",870.49 ± 0.52 kg/m3
same,mass density,"323.15 K, x1 = 1",868.23 ± 0.51 kg/m3
same,mass density,"333.15 K, x1 = 0.002",982.96 ± 0.5 kg/m3
same,mass density,"333.15 K, x1 = 0.0033",982.75 ± 0.5 kg/m3
same,mass density,"333.15 K, x1 = 0.0047",982.53 ± 0.5 kg/m3
same,mass density,"333.15 K, x1 = 0.0072",982.12 ± 0.5 kg/m3
same,mass density,"333.15 K, x1 = 0.009",981.85 ± 0.5 kg/m3
same,mass density,"333.15 K, x1 = 0.0123",981.3 ± 0.5 kg/m3
same,mass density,"333.15 K, x1 = 0.0222",979.82 ± 0.5 kg/m3
same,mass density,"333.15 K, x1 = 0.0436",977.37 ± 0.5 kg/m3
same,mass density,"333.15 K, x1 = 0.0609",975.89 ± 0.5 kg/m3
same,mass density,"333.15 K, x1 = 0.0827",974.47 ± 0.5 kg/m3
same,mass density,"333.15 K, x1 = 0.106",973.29 ± 0.5 kg/m3
same,mass density,"333.15 K, x1 = 0.1481",971.62 ± 0.5 kg/m3
same,mass density,"333.15 K, x1 = 0.2063",968.4 ± 0.51 kg/m3
same,mass density,"333.15 K, x1 = 0.2513",964.58 ± 0.51 kg/m3
same,mass density,"333.15 K, x1 = 0.3148",956.48 ± 0.51 kg/m3
same,mass density,"333.15 K, x1 = 0.341",952.88 ± 0.51 kg/m3
same,mass density,"333.15 K, x1 = 0.4038",942.8 ± 0.51 kg/m3
same,mass density,"333.15 K, x1 = 0.4489",935.14 ± 0.51 kg/m3
same,mass density,"333.15 K, x1 = 0.4928",927.53 ± 0.51 kg/m3
same,mass density,"333.15 K, x1 = 0.5468",918.58 ± 0.51 kg/m3
same,mass density,"333.15 K, x1 = 0.5907",911.42 ± 0.51 kg/m3
same,mass density,"333.15 K, x1 = 0.6361",904.37 ± 0.51 kg/m3
same,mass density,"333.15 K, x1 = 0.6843",897.38 ± 0.51 kg/m3
same,mass density,"333.15 K, x1 = 0.7386",889.84 ± 0.51 kg/m3
same,mass density,"333.15 K, x1 = 0.7954",882.31 ± 0.51 kg/m3
same,mass density,"333.15 K, x1 = 0.81",880.16 ± 0.51 kg/m3
same,mass density,"333.15 K, x1 = 0.8505",875.33 ± 0.51 kg/m3
same,mass density,"333.15 K, x1 = 0.898",870.05 ± 0.51 kg/m3
same,mass density,"333.15 K, x1 = 0.9282",866.59 ± 0.51 kg/m3
same,mass density,"333.15 K, x1 = 0.9584",863.2 ± 0.52 kg/m3
same,mass density,"333.15 K, x1 = 0.9678",862.17 ± 0.52 kg/m3
same,mass density,"333.15 K, x1 = 0.9793",860.9 ± 0.52 kg/m3
same,mass density,"333.15 K, x1 = 1",858.6 ± 0.52 kg/m3
